Source: patent US11709165B2, “Examination method for prediction of effect of treatment of cancer based on detection of cancer/testis antibodies” (KAWASAKI GAKUEN EDUCATIONAL FOUNDATION, priority 2017, dated 2023)
Like-named read-outs stand apart in the source and are kept apart here. Where no end group is shown, it is not given here.

How the values were obtained:
[1] = tested on: previously treated non-small-cell lung cancer; settings: cited from earlier work; for MST: POPLAR
[2] = tested on: previously treated non-squamous non-small-cell lung cancer; settings: cited from earlier work; for Median survival time (MST): CheckMate-057, primary outcome; for Disease progression rate / Response rate: CheckMate-057
[3] = tested on: previously treated non-small-cell lung cancer; settings: cited from earlier work
[4] = tested on: previously treated squamous-cell lung cancer; settings: cited from earlier work; for Median survival time (MST): CheckMate-017, primary outcome; for Disease progression rate / Response rate: CheckMate-017
[5] = Repeated administration toxicity trial for 10 weeks into the dorsal skin; settings: both sexes, Sprague-Dawley (Crl:CD(SD)), rat, in vivo; both males and females, 10 weeks repeated administration; read-out: No-observed-adverse-effect level
Method: A toxicity trial was performed in which a mixture of SLP1 and SLP2 was repeatedly administered for 10 weeks (intermittently administered five times every 14 days) with an adjuvant into the dorsal skin of Sprague-Dawley rats (Crl:CD(SD), 6-week-old at the start of administration, a group of 10 males and 10 females).
The following two doses were adopted as the doses of the test substances: 0.2 mg/kg (SLP1: 0.2 mg/kg+SLP2: 0.2 mg/kg) and 2 mg/kg (SLP1: 2 mg/kg+SLP2: 2 mg/kg). SLP1 and SLP2 dissolved in water for injection and Picibanil were mixed with an equal amount of an oil adjuvant MONTANIDE ISA 51 VG (ISA51) to provide an emulsion, which was administered into the dorsal skin in an administration volume of 1 mL/kg. Further, a vehicle control group to be administered an emulsion of water for injection and Picibanil with ISA51 and a physiological saline control group to be administered physiological saline were formed.
During the administration period, general condition observation, body weight measurement, and food intake measurement were performed, and urine examination and ophthalmologic examination were performed in week 10 of the administration. At the end of the administration period, hematological examination, blood chemical examination, an autopsy, organ weight measurement, and histopathological examination were performed.

[6] = KEYNOTE-010, tumor PD-L1 expression of 1% or more
[7] = KEYNOTE-010, tumor PD-L1 expression of 50% or more

## CC(=O)O[C@@]12CO[C@@H]1C[C@H](O)[C@@]1(C)C(=O)[C@H](O)C3=C(C)[C@@H](OC(=O)[C@H](O)[C@@H](NC(=O)OC(C)(C)C)c4ccccc4)C[C@@](O)([C@@H](OC(=O)c4ccccc4)[C@H]21)C3(C)C [docetaxel]
[1]
  MST: 9.7 months
[1]; group expressing no PD-L1 in the cancer immune microenvironment
  Response rate: about 15%
[2]
  Median survival time (MST): 9.4 months
  Disease progression rate: 29%
  Response rate: 12%
[3]; [6]
  MST: 8.5 months
  Response rate: 9.3%
[3]; [7]
  Response rate: 7.9%
[4]
  Median survival time (MST): 6.0 months
  Disease progression rate: 30%
  Response rate: 31%

## ISQTPGINLDLGSGVKVKIIPKEEH [SLP2]
[5]
  NOAEL at 1680 h: > 2 mg/kg

## NQQLKVGILHLGSRQKKIRIQLRSQ [SLP1]
[5]
  NOAEL at 1680 h: > 2 mg/kg

## atezolizumab
[1]
  MST: 12.6 months
[1]; group highly expressing PD-L1 in the cancer immune microenvironment
  Response rate: 38%

## nivolumab
[2]
  Median survival time (MST): 12.2 months
  Disease progression rate: 44%
  Response rate: 19%
[4]
  Median survival time (MST): 9.2 months
  Disease progression rate: 33%
  Response rate: 36%

## pembrolizumab
[3]; [6]
  Progression-free survival (PFS) as compared to docetaxel group: No significant difference
[3]; [7]
  PFS as compared to docetaxel group: significantly improved
